Test [1] is described as follows: Inhibition of sheep brain tubulin polymerization using DAPI by fluorimetry. More on the design: species or system Ovis aries.
The subject of another test is NCI-H460. Kind of test: Growth inhibition of human NCI-H460 cells after 48 hrs by sulforhodamine B assay. It counts as functional. Conditions: NCI-H460, 48 h. For orientation: Sulforhodamine B stains cellular protein and so reports cell mass.
Another test has as its system MCF7. Kind of test: Growth inhibition of human MCF7 cells after 48 hrs by sulforhodamine B assay. It is filed as functional. Conditions: MCF7, 48 h.
In the next test the test system is OVCAR-3. The test is described as follows: Growth inhibition of human OVCAR3 cells after 48 hrs by sulforhodamine B assay. It counts as functional. Conditions: OVCAR-3, 48 h.
The species named for another test is Ovis aries. Kind of test: Inhibition of sheep brain tubulin polymerization at 100 uM using DAPI by fluorimetry.
In another test the test system is SF-295. The test is described as follows: Growth inhibition of human SF295 cells after 48 hrs by sulforhodamine B assay. It is filed as functional. Conditions: SF-295, 48 h.
The test system of a further test is DU-145. Kind of test: Growth inhibition of human DU145 cells after 48 hrs by sulforhodamine B assay. Conditions: DU-145, 48 h. It is filed as functional.
In a further test the test system is A498. Kind of test: Growth inhibition of human A498 cells after 48 hrs by sulforhodamine B assay. It counts as functional. Conditions: A498, 48 h.
In the next test the test system is KM12. The test is described as follows: Growth inhibition of human KM12 cells after 48 hrs by sulforhodamine B assay. It is filed as functional. Particulars: KM12, 48 h.
For the next test, the system named is 786-0. Kind of test: Growth inhibition of human 786-0 cells after 48 hrs by sulforhodamine B assay. It counts as functional. Conditions: 786-0, 48 h.
For the next test, the system named is PC-3. The test is described as follows: Growth inhibition of human PC3 cells after 48 hrs by sulforhodamine B assay. It counts as functional. Particulars: PC-3, 48 h.
The test system of another test is TK-10. The test is described as follows: Growth inhibition of human TK10 cells after 48 hrs by sulforhodamine B assay. It counts as functional. Particulars: TK-10, 48 h.
Another test deals with SNB-75. The test is described as follows: Growth inhibition of human SNB75 cells after 48 hrs by sulforhodamine B assay. It is filed as functional. Particulars: SNB-75, 48 h.
The next test has as its system MOLT-4. Kind of test: Growth inhibition of human MOLT4 cells after 48 hrs by sulforhodamine B assay. It is filed as functional. Conditions: MOLT-4, 48 h.
The next test has as its system BT-549. Kind of test: Growth inhibition of human BT549 cells after 48 hrs by sulforhodamine B assay. It is filed as functional. Conditions: BT-549, 48 h.
Another test has as its system UACC-62. The test is described as follows: Growth inhibition of human UACC62 cells after 48 hrs by sulforhodamine B assay. It counts as functional. Particulars: UACC-62, 48 h.
The test system of the next test is HOP-62. Kind of test: Growth inhibition of human HOP62 cells after 48 hrs by sulforhodamine B assay. It is filed as functional. Particulars: HOP-62, 48 h.
The test system of the next test is MDA-MB-435. The test is described as follows: Growth inhibition of human MDA-MB-435 cells after 48 hrs by sulforhodamine B assay. It counts as functional. Conditions: MDA-MB-435, 48 h.
The next test concerns COLO 205. The test is described as follows: Growth inhibition of human COLO205 cells after 48 hrs by sulforhodamine B assay. It is filed as functional. Particulars: COLO 205, 48 h.
The next test has as its system NCI-H522. Kind of test: Growth inhibition of human NCI-H522 cells after 48 hrs by sulforhodamine B assay. It counts as functional. Particulars: NCI-H522, 48 h.
In a further test the test system is OVCAR-8. The test is described as follows: Growth inhibition of human OVCAR8 cells after 48 hrs by sulforhodamine B assay. It counts as functional. Conditions: OVCAR-8, 48 h.
The test system of the next test is Malme-3M. Kind of test: Growth inhibition of human MALME-3M cells after 48 hrs by sulforhodamine B assay. It counts as functional.
The next test has as its system HCT-15. The test is described as follows: Growth inhibition of human HCT15 cells after 48 hrs by sulforhodamine B assay. It counts as functional. Particulars: HCT-15, 48 h.
The test system of a further test is OVCAR-4. Kind of test: Growth inhibition of human OVCAR4 cells after 48 hrs by sulforhodamine B assay. It counts as functional. Conditions: OVCAR-4, 48 h.
The test system of the next test is SR. Kind of test: Growth inhibition of human SR cells after 48 hrs by sulforhodamine B assay. It counts as functional.
For a further test, the system named is OVCAR-5. The test is described as follows: Growth inhibition of human OVCAR5 cells after 48 hrs by sulforhodamine B assay. It is filed as functional. Particulars: OVCAR-5, 48 h.
A further test concerns K562. Kind of test: Growth inhibition of human K562 cells after 48 hrs by sulforhodamine B assay. It counts as functional. Conditions: K562, 48 h.
The nature of test [2]: Growth inhibition of human Hs 578T cells after 48 hrs by sulforhodamine B assay. It counts as functional.
The next test concerns T47D. Kind of test: Growth inhibition of human T47D cells after 48 hrs by sulforhodamine B assay. It is filed as functional.
A further test concerns SF-539. Kind of test: Growth inhibition of human SF539 cells after 48 hrs by sulforhodamine B assay. It is filed as functional. Conditions: SF-539, 48 h.
For another test, the system named is SN12C. The test is described as follows: Growth inhibition of human SN12C cells after 48 hrs by sulforhodamine B assay. It is filed as functional.
The next test deals with IGROV-1. The test is described as follows: Growth inhibition of human IGROV1 cells after 48 hrs by sulforhodamine B assay. It is filed as functional. Particulars: IGROV-1, 48 h.
For the next test, the system named is A549. Kind of test: Growth inhibition of human A549/ATCC cells after 48 hrs by sulforhodamine B assay. Conditions: A549, 48 h. It counts as functional.
The subject of another test is RXF 393. Kind of test: Growth inhibition of human RXF393 cells after 48 hrs by sulforhodamine B assay. It counts as functional. Particulars: RXF 393, 48 h.
The test system of another test is ACHN. The test is described as follows: Growth inhibition of human ACHN cells after 48 hrs by sulforhodamine B assay. It is filed as functional.
A further test has as its system LOX IMVI. The test is described as follows: Growth inhibition of human LOXIMVI cells after 48 hrs by sulforhodamine B assay. It counts as functional.
Another test has as its system MDA-MB-468. The test is described as follows: Growth inhibition of human MDA-MB-468 cells after 48 hrs by sulforhodamine B assay. It counts as functional. Particulars: MDA-MB-468, 48 h.
In the next test the test system is SK-OV-3. Kind of test: Growth inhibition of human SKOV3 cells after 48 hrs by sulforhodamine B assay. It counts as functional. Conditions: SK-OV-3, 48 h.
A further test concerns MDA-MB-231. The test is described as follows: Growth inhibition of human MDA-MB-231 cells after 48 hrs by sulforhodamine B assay. It counts as functional. Particulars: MDA-MB-231, 48 h.
Another test has as its system HOP-92. Kind of test: Growth inhibition of human HOP92 cells after 48 hrs by sulforhodamine B assay. Particulars: HOP-92, 48 h. It counts as functional.
The next test has as its system SW-620. The test is described as follows: Growth inhibition of human SW620 cells after 48 hrs by sulforhodamine B assay. It counts as functional. Conditions: SW-620, 48 h.
For another test, the system named is RPMI-8226. Kind of test: Growth inhibition of human RPMI8226 cells after 48 hrs by sulforhodamine B assay. Particulars: RPMI-8226, 48 h. It is filed as functional.
The next test has as its system HT-29. The test is described as follows: Growth inhibition of human HT-29 cells after 48 hrs by sulforhodamine B assay. It is filed as functional. Conditions: HT-29, 48 h.
The subject of a further test is SK-MEL-2. The test is described as follows: Growth inhibition of human SK-MEL-2 cells after 48 hrs by sulforhodamine B assay. Particulars: SK-MEL-2, 48 h. It is filed as functional.
The next test has as its system CAKI-1. The test is described as follows: Growth inhibition of human CAKI-1 cells after 48 hrs by sulforhodamine B assay. It counts as functional. Particulars: CAKI-1, 48 h.
Another test deals with HCT-116. Kind of test: Growth inhibition of human HCT116 cells after 48 hrs by sulforhodamine B assay. It is filed as functional. Particulars: HCT-116, 48 h.
In another test the test system is SK-MEL-28. Kind of test: Growth inhibition of human SK-MEL-28 cells after 48 hrs by sulforhodamine B assay. Conditions: SK-MEL-28, 48 h. It counts as functional.
The nature of test [3]: Growth inhibition of human HCC2998 cells after 48 hrs by sulforhodamine B assay. It counts as functional. Particulars: HCC 2998, 48 h.
Test [4] can be described thus: Growth inhibition of human NCI-ADR-RES cells after 48 hrs by sulforhodamine B assay. It counts as functional.
In another test the test system is CCRF-CEM. The test is described as follows: Growth inhibition of human CCRF-CEM cells after 48 hrs by sulforhodamine B assay. It is filed as functional.
In another test the test system is SK-MEL-5. The test is described as follows: Growth inhibition of human SK-MEL-5 cells after 48 hrs by sulforhodamine B assay. It counts as functional. Conditions: SK-MEL-5, 48 h.
A further test concerns SF-268. The test is described as follows: Growth inhibition of human SF268 cells after 48 hrs by sulforhodamine B assay. It counts as functional. Conditions: SF-268, 48 h.
Another test relates to M14. Kind of test: Growth inhibition of human M14 cells after 48 hrs by sulforhodamine B assay. It is filed as functional. Conditions: M14, 48 h.
The test system of a further test is HL-60(TB). The test is described as follows: Growth inhibition of human HL-60(TB) cells after 48 hrs by sulforhodamine B assay. Conditions: HL-60, 48 h. It counts as functional.
Another test concerns NCI-H23. Kind of test: Growth inhibition of human NCI-H23 cells after 48 hrs by sulforhodamine B assay. Particulars: NCI-H23, 48 h. It is filed as functional.

The structures appear in SMILES notation.

A word on the IC50: it is the concentration that gives 50% inhibition. A higher IC50 goes with weaker potency. In [1], `C=C(c1ccc(OC)c(O)c1)c1cc(OC)c(OC)c(OC)c1` displayed an IC50 of 1500 nM.
In general, GI50 refers to the concentration giving 50% growth inhibition. Low values mean more potent growth inhibition, high ones less potent growth inhibition. The inhibition is the drop in the measured response relative to a control, in per cent. In test [1], `COc1ccc(C(=O)c2cc(OC)c(OC)c(OC)c2)cc1O` [PHENSTATIN] had a concentration for half-maximal inhibition (IC50) of 3430 nM. Besides, the GI50 with NCI-H460 was 6 nM; with MCF7, 437 nM; with OVCAR-3, 2 nM; in the test on SF-295, 52 nM; in the test with DU-145, 34 nM; in the test with A498, 380 nM. In addition, the inhibition in the test listed under Ovis aries came to 99%.
`COc1cc2cc(C(=O)N3c4ccccc4Sc4ccccc43)[nH]c2cc1OC`: the GI50 with KM12 was 620 nM; in the test with 786-0 it was 941 nM; in the test on PC-3, 435 nM; in the test with TK-10, 8310 nM; with SNB-75 it was 392 nM; in the test on MOLT-4, 1540 nM. Besides, the GI50 is 6060 nM with BT-549; 529 nM in the test with UACC-62; 396 nM with NCI-H460; 368 nM with MCF7; 838 nM in the test on HOP-62; 184 nM in the test on MDA-MB-435. Besides, the GI50 with COLO 205 stood at 595 nM; with NCI-H522, 335 nM; in the test with OVCAR-8 it was 1630 nM; in the test with OVCAR-3 it was 366 nM; in the test with Malme-3M, 503 nM; with HCT-15, 442 nM. For the same compound, the GI50 was determined as 1750 nM with OVCAR-4; 303 nM in the test on SR; 2590 nM in the test on OVCAR-5; 437 nM with K562; 1960 nM in test [2]; 804 nM in the test with T47D. Moreover, the GI50 in the test on SF-539 worked out at 517 nM; with SN12C, 3860 nM; in the test on IGROV-1 it was 1880 nM; in the test on A549, 656 nM; in the test on RXF 393 it was 363 nM; in the test on ACHN, 611 nM. For the same compound, the GI50 in the test with LOX IMVI stood at 3310 nM; with MDA-MB-468, 204 nM; in the test with SK-OV-3, 723 nM; with MDA-MB-231, 184 nM; with SF-295, 329 nM; with HOP-92 it was 54 nM. Also, the GI50 in the test with SW-620 turned out to be 418 nM; with DU-145, 679 nM; in the test with RPMI-8226 it was 902 nM; with HT-29, 395 nM; in the test on SK-MEL-2, 873 nM; in the test on CAKI-1, 573 nM. Besides, the 50% growth inhibitory concentration (GI50) is 537 nM with HCT-116; 829 nM in the test on SK-MEL-28; 23400 nM in [3]; 571 nM in test [4]; 215 nM in the test with A498; 589 nM in the test with CCRF-CEM. Further, the 50% growth inhibitory concentration (GI50) came out at 300 nM with SK-MEL-5; 10200 nM in the test on SF-268; 599 nM in the test on M14; 387 nM in the test with HL-60(TB); 7140 nM in the test on NCI-H23. The compound also yielded an inhibition in the test listed under Ovis aries of 36%.

Values taken from ChEMBL document CHEMBL2331144, “Synthesis and anticancer activity of analogues of phenstatin, with a phenothiazine A-ring, as a new class of microtubule-targeting agents” (Bioorg Med Chem Lett, 2013).
